Key:
[1] = tested on: murine hematopoietic cell line FL5.12; test: Viability of FL5.12 cells by vital dye exclusion; type: cell-based; details: FL5.12 cells, 48 h, vital dye exclusion; n ≥3; read-out: IC50 (μM) [95% CI]
Protocol: (§1) Cell culture studies: FL5.12 cells (murine hematopoetic cells originally obtained from Craig Thompson, Memorial Sloan Kettering Cancer Center) were maintained at 0.1-0.5 million/ml in RPMI 1640 (Mediatech) supplemented with 10% fetal calf serum (FCS, Sigma-Aldrich), 10 mM Hepes (Mediatech), 500 pg/ml recombinant IL-3 (cat #575502, Biolegend), 55 μM β-mercaptoethanol (Sigma-Aldrich), 2 mM L-glutamine (Mediatech), and antibiotics. Cells were screened for Mycoplasma every 3 months using the Look-Out Mycoplasma PCR Detection kit (cat #MP0035, Sigma).
IC50 values were calculated using GraphPad Prism (GraphPad Software, Inc, La Jolla, Calif.).

PP2A = PP2A phosphatase activity; type: biochemical, murine; details: PP2A immunoprecipitated from FL5.12 cell lysates, phosphopeptide dephosphorylation
Source text: Furthermore, many embodiments of the invention are directed to azacyclic constrained sphingolipid-like molecules inducing internalization of nutrient transporters via a mechanism that activates PP2A. […] Thus, activation of PP2A is very peculiar to certain sphingolipid structures. Activation of PP2A by FTY720 and SH-BC-893 also stimulated vacuolation, and as the PP2A inhibitors calyculin A and SV40 small t antigen, each blocked this effect (FIG. 59C). Of note, YM201636-induced vacuolation was unaffected by PP2A inhibition (FIG. 60B). In addition, inhibiting PP2A restored PIKfyve to the proper location within vacuoles in cells treated with FTY720 or SH-BC-893 (FIG. 57D).
PP2A phosphatase activity. PP2A activity was measured using a PP2A immunoprecipitation phosphatase assay kit (EMD Millipore). Briefly, the catalytic subunit of PP2A was immunoprecipitated from FL5.12 cell lysates with 4 μg anti-PP2A, C subunit. After four washes, the activity of immunoprecipitated PP2A was assessed by dephosphorylation of the phosphopeptide according to the manufacturer's instructions in the presence or absence of C2-ceramide, dihydro-C2-ceramide, FTY720, SH-BC-893, or calyculinA.

CD98 (4F2hc, SLC3A2) = test: Surface CD98 nutrient transporter down-regulation by flow cytometry; type: cell-based, murine; details: FL5.12 cells
Source text: (§2) In an exemplified study, nutrient transporter down-regulation was monitored by quantifying surface levels of the amino acid transporter-associated protein, CD98, by flow cytometry. Vacuolation was scored in a range from 0 to […], as determined by a vacuolation assay described in greater detail in the Materials and Methods section below.
as §1
Nutrient transporter expression: Surface CD98 (4F2hc, SLC3A2) expression was measured at 3 h using phycoerythrin (PE)-conjugated rat anti-mouse CD98 antibody (Biolegend, cat #128208); analysis was restricted to viable cells. PE conjugated Rat IgG2a, k (cat #400508, Biolegend) was used as an isotype control. For staining, 200,000 cells were pelleted, re-suspended in 100 μl FACS block (PBS with 10% FCS and 0.05% NaN3) containing 0.25 μL anti-CD98 antibody, incubated on ice for 30 min, washed twice with 1 ml FACS wash (PBS containing 2% FCS and 0.05% NaN3), and analyzed on a BD LSR II flow cytometer. Data was processed with FlowJo software (Treestar).

FL5.12 cells = test: Vacuolation assay; type: cell-based, murine; set-up: key to Vacuolation score: 0-100 score: (3×%cat3+2×%cat2+1×%cat1)/3; cells graded 0-3 for vacuoles; details: FL5.12 cells
Protocol: as §2
Vacuolation assay: Cells were evaluated at 100× using brightfield microscopy and a Nikon TE2000-S fluorescence microscope equipped with DIC filters. Vacuolation was quantified after a 3 h incubation period in 2.5 μM compound except where otherwise indicated. To calculate a vacuolation score, vacuolation severity in at least 15 individual cells/experiment was assessed qualitatively. Scores were assigned to individual cells as follows: 0=no vacuoles, 1=very small vacuoles, 2=multiple well-defined vacuoles, 3=multiple large vacuoles. To calculate the vacuolation score associated with a compound, the following formula was used: vacuolation score=[(3×% cells in category 3)+(2×% cells in category 2)+(1×% cells in category 1)]/3.
The score is divided by 3 so that a compound with 100% of its cells in category 3 would have a vacuolation score of 100. Three independent experiments were conducted and the vacuolation scores averaged to generate a mean+/−SEM. All cells were scored by one lab member after confirming that a blinded individual scored 5 compounds with similar results.

[2] = tested on: Pancreas (PANC-1) cancer cell line; test: IC50 in cancer cell lines (Table 3), pancreas; type: cell-based, human; details: Mean ± SEM, n ≥ 3
Protocol: (§3) Having observed a suitable potency of some embodiments of the invention, including, at least with compounds 3-6, 14 in prostate cancer cell lines, other cancer cell lines were tested with these compounds. […] Compounds that were active in prostate cancer cell lines also killed BCR-Abl-positive leukemia cells with similar potency to FTY720.
(§4) Cell culture studies: Sup-B15 cells are maintained at 2-3 million/mL in RPMI 1640 (Mediatech) supplemented with 10% fetal calf serum (FCS, Sigma-Aldrich), 10 mM Hepes (Mediatech), 55 μM β-mercaptoethanol (Sigma-Aldrich), 2 mM L-glutamine (Mediatech), and antibiotics. All adherent cells are maintained at 70-80% confluence. Cell are cultured in the following media: PC3 & A549, Ham's F12K (Corning Cell Gro) supplemented with 10% FCS and antibiotics; DU145 cells, MEM (Corning Cell Gro) supplemented with 10% FCS, 1 mM sodium pyruvate (Mediatech), and antibiotics; SW620 & MDA-MB-231, DMEM (Corning Cell Gro) with 10% FCS, 1 mM sodium pyruvate (Mediatech), and antibiotics; Panc-1 cells, DMEM (Corning Cell Gro) supplemented with 10% FCS and antibiotics. All of the above cell lines are available from the ATCC.
(§5) Viability assays: Cell Titer Glo assays (Cell Titer Glo Luminescent Cell Viability Assay kit, cat #G7571, Promega Corporation) are performed in clear bottom 96-well black cell culture plates (cat #655090, Greiner Bio-One, NC, USA). After plating at 1,000 cells/well in volume of 100 μl, cells are left undisturbed for at least 24 h before drug addition. After 72 h, cells are prepared for analysis by adding 10 μl of 0.1% Triton-X100 in PBS with shaking for 1 min at room temperature (RT). Cell Titer-Glo cell lysis reagent (20 μl) is then added followed by 1 min of shaking and a 10 min incubation in the dark at RT. Luminescence is detected using an IVIS imaging system (IVIS Lumina II, Perkin Elmer, USA). […] IC50s are determined using GraphPad Prism (GraphPad Software, Inc, La Jolla, Calif.). SupB-15 viability was determined by flow cytometry. Cell Titer Glo assays were performed with the other cell lines.

[3] = tested on: Colon (SW-620) cancer cell line; test: IC50 in cancer cell lines (Table 3), colon; type: cell-based, human; details: Mean ± SEM, n ≥ 3
Protocol: as §3, §4, §5

Leukemia (SupB-15) cells = test: IC50 in cancer cell lines (Table 3), leukemia; type: cell-based, human; details: flow cytometry; Mean ± SEM, n ≥ 3
Protocol: as §3, §4, §5

S1P receptor 5 = target: T1, S1P receptor 5 (Homo sapiens, UniProt Q9H228); test: S1P receptor activation in CHO cells, S1P5; type: cell-based; details: CHO cells over-expressing human S1P5
T1 construct: expressed in transfected cells
Source text: (§6) Phosphorylation may have effects on S1P receptor activity that could cause bradycardia. Bradycardia, the dose-limiting toxicity that prevents the use of FTY720 in cancer patients, stems from FTY720-P's actions on S1P receptors 1 and 3. (Camm, J., et al. (2014) Am. Heart J. 168, 632-644; Cohen, J. A., Chun, J. (2011) Ann. Neurol. 69, 759-777; Sanna, M. G., et al. (2004) J. Biol. Chem. 279, 13839-13848; the disclosures of which are incorporated herein by reference). Phosphorylation by sphingosine kinase may make compounds competent to activate S1P receptors. FTY720, for example, when phosphorylated is known to activate S1P receptors 1 and 3. Because compound 5 could be phosphorylated, the activity of compound 5 and its phosphate 5-P (FIG. 28) on S1P receptors was evaluated (FIG. 32).
(§7) 51P1-5 activation: Chinese hamster ovary (CHO) cells stably over-expressing the different human 51P receptor subtypes are used. S1P1, S1P4 and S1P5 overexpressing CHO cells are cultured in medium containing alpha-MEM supplemented with 10% FBS, 50 μg/ml gentamycin and 0.5 mg/ml G418. S1P2 and S1P3 overexpressing CHO cells are cultured in RPMI containing 10% FBS, 50 μg/ml gentamycin and 0.5 mg/ml G418. Prior to stimulation, cells are rendered serum-free for 24 h. Stimulation is carried out for 10 min in serum-free DMEM containing 0.1 mg/ml of fatty-acid free BSA in the absence or presence of the various compounds or 51P. Protein lysates are prepared using a buffer containing (50 mM Tris pH 7.4, 150 mM NaCl, 10% glycerol, 1% Triton X-100, 2 mM EDTA, 2 mM EGTA, 40 mM β-glycerophosphate, 50 mM sodium fluoride, 10 mM sodium pyrophosphate, 2 mM dithiothreitol, 0.2 mM sodium orthovanadate). Cells are homogenized by one 5 sec burst in a MSE Ultrasonic Disintegrator, centrifuged and taken for protein determination. Equal amounts of protein are separated by SDS-PAGE (10% polyacrylamide gel), transferred to nitrocellulose membranes and subjected to Western blot analysis. Bands were stained using IRDye® secondary antibodies and visualized by the LICOR Odyssey® Fc Imaging system. Antibodies against phospho-Thr202/Tyr204-p42/p44-MAPK and phospho-Ser PKC substrate are from Cell Signaling, Frankfurt am Main, Germany. Polyclonal antisera against total p42 and total p44 were generated and characterized as previously described. (Huwiler, A.; Pfeilschifter, J. Br. J. Pharmacol. 1994, 113, 1455-1463; disclosure of which is incorporated herein by reference).

[4] = tested on: Breast (MDA-MB-231) cancer cell line; test: IC50 in cancer cell lines (Table 3), breast; type: cell-based, human; details: Mean ± SEM, n ≥ 3
Protocol: as §3, §4, §5

[5] = tested on: PC3 prostate cancer cells; test: Cell viability by vital dye exclusion and flow cytometry in PC3; type: cell-based, human; details: vital dye exclusion (DAPI) and flow cytometry, 72 h
Protocol: Thus, to determine whether analogues in accordance with embodiments of the invention are cytotoxic, studies were conducted using vital dye exclusion and flow cytometry (Table 2).
as §5

[6] = tested on: Lung (A-549) cancer cell line; test: IC50 in cancer cell lines (Table 3), lung; type: cell-based, human; details: Mean ± SEM, n ≥ 3
Protocol: as §3, §4, §5

[7] = tested on: PC3 prostate cancer cells; test: Cell Titer Glo proliferation assay in PC3; type: cell-based, human; details: Cell Titer Glo, 72 h; Mean ± SEM, n ≥ 3; read-out: IC50 values in prostate cancer cell lines, PC3
Protocol: (§8) Previously presented compounds 1-4 (FIG. 23), compounds 5-8 (FIG. 28), and control compound FTY720 (FIG. 2) were used to treat the well-established PC3 and DU145 prostate cancer lines (FIG. 29 and Table 1). A Cell Titer Glo assay was performed to measure proliferation of the cancer lines.
as §4, §5

S1P receptor 1 = target: T2, S1P receptor 1 (Homo sapiens, UniProt P21453); test: S1P receptor activation in CHO cells, S1P1; type: cell-based; details: CHO cells over-expressing human S1P1, 10 min stimulation, Western blot
T2 construct: expressed in transfected cells
Source text: as §6, §7

S1P receptor 4 = target: T3, S1P receptor 4 (Homo sapiens, UniProt O95977); test: S1P receptor activation in CHO cells, S1P4; type: cell-based; details: CHO cells over-expressing human S1P4
T3 construct: expressed in transfected cells
T3 sequence (O95977 1-384): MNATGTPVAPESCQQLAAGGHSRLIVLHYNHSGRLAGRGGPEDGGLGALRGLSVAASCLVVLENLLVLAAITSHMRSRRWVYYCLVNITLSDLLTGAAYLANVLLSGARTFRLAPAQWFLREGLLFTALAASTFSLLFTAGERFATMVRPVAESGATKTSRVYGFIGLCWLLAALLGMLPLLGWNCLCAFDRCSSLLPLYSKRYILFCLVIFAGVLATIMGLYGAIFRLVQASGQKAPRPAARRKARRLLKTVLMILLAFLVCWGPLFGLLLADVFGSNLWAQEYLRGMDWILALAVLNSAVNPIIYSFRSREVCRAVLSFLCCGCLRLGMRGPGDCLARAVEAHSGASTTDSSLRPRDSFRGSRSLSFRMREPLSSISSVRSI
Source text: as §6, §7

S1P receptor 2 = target: T4, S1P receptor 2 (Homo sapiens, UniProt O95136); test: S1P receptor activation in CHO cells, S1P2; type: cell-based; details: CHO cells over-expressing human S1P2
T4 construct: expressed in transfected cells
Source text: as §6, §7

[8] = tested on: DU145 prostate cancer cells; test: Cell Titer Glo proliferation assay in DU145; type: cell-based, human; details: 72 h, Mean ± SEM, n ≥ 3, read-out: IC50 values in prostate cancer cell lines, DU145
Protocol: as §8, §4, §5

S1P receptor 3 = target: T5, S1P receptor 3 (Homo sapiens, UniProt Q99500); test: S1P receptor activation in CHO cells, S1P3; type: cell-based; details: CHO cells over-expressing human S1P3
T5 construct: expressed in transfected cells
Source text: as §6, §7

T5 sequence (Q99500 whole entry): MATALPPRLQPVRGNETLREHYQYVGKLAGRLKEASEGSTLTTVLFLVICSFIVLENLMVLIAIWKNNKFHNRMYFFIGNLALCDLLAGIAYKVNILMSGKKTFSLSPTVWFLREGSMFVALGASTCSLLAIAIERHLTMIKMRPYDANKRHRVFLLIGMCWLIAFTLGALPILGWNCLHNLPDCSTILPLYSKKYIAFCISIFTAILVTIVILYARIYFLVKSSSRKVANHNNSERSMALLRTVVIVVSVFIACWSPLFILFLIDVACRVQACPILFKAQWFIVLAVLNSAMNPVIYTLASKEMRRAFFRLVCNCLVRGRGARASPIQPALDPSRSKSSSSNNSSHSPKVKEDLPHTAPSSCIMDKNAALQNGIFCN
T1 sequence (Q9H228 whole entry): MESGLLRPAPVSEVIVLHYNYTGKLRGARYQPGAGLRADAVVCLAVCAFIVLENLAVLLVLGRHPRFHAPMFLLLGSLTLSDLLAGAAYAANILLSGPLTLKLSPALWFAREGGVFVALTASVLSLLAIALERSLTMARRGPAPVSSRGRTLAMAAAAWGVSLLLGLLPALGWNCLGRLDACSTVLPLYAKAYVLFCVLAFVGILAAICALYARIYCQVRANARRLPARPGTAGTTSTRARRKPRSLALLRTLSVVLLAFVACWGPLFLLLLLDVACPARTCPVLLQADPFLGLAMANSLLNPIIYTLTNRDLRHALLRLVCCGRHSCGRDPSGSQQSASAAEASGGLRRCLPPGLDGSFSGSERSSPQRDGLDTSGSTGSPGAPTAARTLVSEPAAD
T2 sequence (P21453 whole entry): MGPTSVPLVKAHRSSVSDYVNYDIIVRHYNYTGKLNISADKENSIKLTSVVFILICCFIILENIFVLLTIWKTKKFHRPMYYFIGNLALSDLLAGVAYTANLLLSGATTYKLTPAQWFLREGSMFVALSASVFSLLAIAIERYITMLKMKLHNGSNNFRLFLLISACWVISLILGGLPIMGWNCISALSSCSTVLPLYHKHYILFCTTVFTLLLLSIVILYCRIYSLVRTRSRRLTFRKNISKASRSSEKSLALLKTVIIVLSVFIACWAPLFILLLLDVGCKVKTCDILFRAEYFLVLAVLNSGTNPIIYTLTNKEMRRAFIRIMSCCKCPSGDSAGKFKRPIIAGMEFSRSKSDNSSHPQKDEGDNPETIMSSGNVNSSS
T4 sequence (O95136 whole entry): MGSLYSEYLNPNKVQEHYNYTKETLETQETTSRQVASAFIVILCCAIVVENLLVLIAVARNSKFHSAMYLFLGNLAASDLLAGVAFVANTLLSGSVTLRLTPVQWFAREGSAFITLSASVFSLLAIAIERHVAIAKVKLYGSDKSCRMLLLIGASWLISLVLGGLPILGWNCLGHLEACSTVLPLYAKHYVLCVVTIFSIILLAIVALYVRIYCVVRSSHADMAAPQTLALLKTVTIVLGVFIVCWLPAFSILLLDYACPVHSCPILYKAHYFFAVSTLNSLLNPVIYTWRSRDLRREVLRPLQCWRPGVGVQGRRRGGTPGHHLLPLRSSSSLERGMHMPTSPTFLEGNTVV

PP2A activation (PP2A)	SMILES	IC50 [1] [µM]	concentration required to cause similar transporter loss (CD98 (4F2hc, SLC3A2); CD98 loss) [µM]	% CD98 down-regulation (CD98 (4F2hc, SLC3A2); surface CD98 at 3 h, flow cytometry, mean ± SEM, n ≥3) [%]	Vacuolation score (FL5.12 cells; 3 h in 2.5 μM compound except where otherwise indicated, mean ± SEM, n ≥3)	vacuolation (in words) (FL5.12 cells; at any dose / highest dose tested)	IC50 [2] [µM]	IC50 [3] [µM]	IC50 (Leukemia (SupB-15) cells) [µM]	activation of S1P receptor 5 (S1P receptor 5)	IC50 [4] [µM]	IC50 [5] [µM]	IC50 [6] [µM]	IC50 [7] [µM]	activation of S1P receptor 1 (S1P receptor 1)	activation of S1P receptor 4 (S1P receptor 4)	activation of S1P receptor 2 (S1P receptor 2)	IC50 [8] [µM]	activation of S1P receptor 3 (S1P receptor 3)
activating PP2A	CCCCCCCCCCCCC/C=C/[C@@H](O)[C@H](CO)NC(C)=O [Compound 109, C2-ceramide, reference compound]	33	50	47 ± 3	0	did not cause vacuolation	–	–	–	–	–	–	–	–	–	–	–	–	–
–	CCCCCCCCc1ccc([C@@H]2CCN[C@H]2COC)cc1.Cl [Compound 14]	–	–	–	–	–	4.8 ± 0.6	2.7 ± 0.2	7.5 ± 0.4	not able to activate	4	4.6 ± 0.4	7.8 ± 1.8	1.9 ± 0.3	not able to activate	not able to activate	not able to activate	5.6 ± 0.1	not able to activate

From patent US10995068B2, “Synthetic sphingolipid-like molecules, drugs, methods of their synthesis and methods of treatment” (The Regents of the University of California, priority 2015, dated 2021)
